In PubChem BioAssay (NCI):
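96-well plates; 48 h exposure; 5 concentrations. Endpoints by linear interpolation between flanking doses. Not reached: highest tested concentration assigned. GI50 marks 50% less growth. TGI: concentration producing complete growth inhibition.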

Columns and labels:
Experiment in all cases: NCI-60 cell line screen, 48 h
A549 NSCLC = system: A549 NSCLC
IGROV1 ovarian = system: IGROV1 ovarian
LOX IMVI melanoma = system: LOX IMVI melanoma
OVCAR-3 ovarian = system: OVCAR-3 ovarian
OVCAR-5 ovarian = system: OVCAR-5 ovarian
RPMI-8226 leukemia = system: RPMI-8226 leukemia
SF-268 CNS = system: SF-268 CNS
SK-MEL-2 melanoma = system: SK-MEL-2 melanoma
SK-MEL-5 melanoma = system: SK-MEL-5 melanoma
TK-10 renal = system: TK-10 renal

Row | SMILES | GI50 (A549 NSCLC) [µM] | TGI (A549 NSCLC) [µM] | GI50 (IGROV1 ovarian) [µM] | TGI (IGROV1 ovarian) [µM] | GI50 (LOX IMVI melanoma) [µM] | TGI (LOX IMVI melanoma) [µM] | GI50 (OVCAR-3 ovarian) [µM] | TGI (OVCAR-3 ovarian) [µM] | GI50 (OVCAR-5 ovarian) [µM] | TGI (OVCAR-5 ovarian) [µM] | GI50 (RPMI-8226 leukemia) [µM] | TGI (RPMI-8226 leukemia) [µM] | GI50 (SF-268 CNS) [µM] | TGI (SF-268 CNS) [µM] | GI50 (SK-MEL-2 melanoma) [µM] | TGI (SK-MEL-2 melanoma) [µM] | GI50 (SK-MEL-5 melanoma) [µM] | TGI (SK-MEL-5 melanoma) [µM] | GI50 (TK-10 renal) [µM] | TGI (TK-10 renal) [µM]
1 | COc1ccc(OC)c(/C=C2\SC(=S)NC2=O)c1 | 26 | 89.9 | 31.2 | > 100 | 26.6 | > 100 | 36.7 | > 100 | 26.7 | > 100 | 36.7 | > 100 | 31.4 | > 100 | 80.6 | > 100 | 21.2 | 49.2 | 28.8 | > 100
2 | Cc1cc(N(CCCl)CCCl)ccc1C=Nc1ccc(-c2csc(Cc3ccccc3)n2)cc1 | 5.41 | > 62.4 | 24.2 | > 100 | 7.95 | 20.8 | 9.17 | 27 | 8.91 | > 67.1 | 8.26 | 44 | 7.03 | > 85.4 | 18.8 | 40.3 | 7.68 | 21.2 | 19.9 | 62.5
3 | N#Cc1c(N2CCCC2)[nH]c(=O)c(C(c2c(Cl)cccc2Cl)c2c(O)c(C#N)c(N3CCCC3)[nH]c2=O)c1O | 18.8 | 36 | 19 | 56.5 | 11.6 | 37.2 | 3.33 | 14.3 | 19.2 | 38.3 | 2.54 | 18.4 | 11.9 | 29.3 | 16.6 | 45.4 | 0.409 | 13.5 | 12.4 | 29.6
4 | COc1cc(OC(C)=O)cc2c(OC(C)=O)ccc(OC(C)=O)c12 |  | > 100 |  | > 100 |  | > 100 |  | > 100 |  | > 100 |  | > 100 |  | > 100 |  | > 100 |  | > 100 |  | > 100
5 | O=c1cc(-c2ccccc2)[nH]c2ccccc12 | 1.88 | > 100 | 2.35 | > 33.7 | 2.72 | > 100 | 0.342 |  |  | > 100 | 1.18 | > 63 | 3.18 | > 100 | > 100 | > 100 | 0.387 | 19.1 |  | > 100
6 | COc1cc2c(c(OC)c1)C1c3ccccc3NC(=O)N1CC2 (stereo unspecified) | 4.59 | > 100 | 7.71 | > 100 | 5.58 | > 100 | 3.27 | > 100 | 4.96 | > 100 | 5.39 | 68.2 | 7.02 | > 100 | 2.85 | 91.4 | 4.01 | 15.3 | 8.98 | > 100
7 | O=C(NCCO)Nc1ccc(-c2nc(N3CCOCC3)c3cccn3n2)cc1 | 2.07 | 18.3 | 0.167 | 1.08 | 0.693 | 35.3 | 0.17 | 9.82 | 0.138 | 20.7 | 0.405 | > 54.6 | 0.164 | > 95.9 | 0.256 | 5.09 | 0.236 | 3.67 | 0.0935 | 2.64
8 | CN1CCC(n2cnc(-c3ccc(F)cc3)c2-c2ccnc(NCCO)n2)CC1 | 11.9 | > 25 | 18.1 | > 25 | 13.8 | > 25 | > 23.4 | > 25 | > 25 | > 25 | > 25 | > 25 | 18.2 | > 25 | > 25 | > 25 | 17.2 | > 25 | > 20.3 | > 25
9 | Nc1ccccc1C#C/C=C\C#Cc1cccs1 | 10.4 | > 42.5 | 6.36 | > 39.6 | 3.55 | 14.7 | 4.85 | 24.8 | 15.2 | 32.7 | 1.25 | > 35.7 | 4.26 | 34.9 | 16.2 | 43.3 | 4.36 | 17.6 | 17.3 | 39.8
10 | Cc1c(C(=O)C/C(=N\O)C(=O)Nc2cc(Cl)c(Cl)cc2Cl)[n+](=O)c2ccccc2n1[O-] |  | > 100 |  | 20.9 |  | 43.6 |  | 7.52 |  | 39.6 |  | 38.4 |  | 75.7 |  | 34.8 |  | 20.9 |  | 72.2
11 | COc1cccc(-n2ncc3c(N/N=C/c4ccc(C(=O)NCCN(C)C)cc4)ncnc32)c1 | 3.33 | 6.91 | 1.58 | 6.16 | 1.28 | 5.62 | 3.31 | 6.71 | 4.53 | 8.61 | 6.33 | 12.9 | 4.11 | 8.46 | > 9.86 | > 13.9 | 2.95 | 6.09 | 3.4 | 6.8
12 | COC(=O)[C@H](C[C@H](Cc1ccccc1)NC(=O)c1csc([C@@H](C[C@H](C(C)C)N(C)C(=O)[C@@H](NC(=O)[C@H]2CCCCN2C)C(C)C)OC(C)=O)n1)NC(=O)OCc1ccccc1 | 0.00156 | > 9 | 0.00119 | > 4.04 | < 0.0009 | > 9 | < 0.0009 |  | 0.0046 | > 9 | < 0.0009 | 2.34 | 0.000974 | > 9 | < 0.0009 | 4.53 | < 0.0009 | 0.0182 | 0.11 | > 9
